Consider three molecules from patent US4233304A, “Pyridoxine derivatives” (Crinos Industria Farmacobiologica S.p.A., priority 1978, dated 1980).

Data set [1] is described as follows: Anti-inflammatory activity, caraganin-edema test according to Winter et al. The data set is classed as in vivo. The note with it: rat, vs controls. The source says:
As referred above, the inventive compound of the instant invention show anti-inflammatory activity and moreover may show, although not necessarily, also analgesic and/or anti-pyretic activity. The anti-inflammatory activity of the novel compounds of the instant invention has been confirmed by means of the caraganin-edema test on the rat.
Caraganin-edema test according to Winter et al (Proc. Soc. Exp. Biol. Med., 111, 544, 1962) in the normal rat. […]

Another data set relates to mouse. To be noted: footnote (1) Adams S.S. et al., Tox. Appl. Pharmacol., 15, 310, 1969; cited from earlier work.
Data set [2] can be described thus: Analgesic activity, test of Randall and Selitto. The data set is classed as in vivo. To be noted: rat, variation from algogenic stimulus vs controls. On the procedure:
Test of Randall and Selitto (Arch. Ing. Pharmacodyn., 111, 409, 1957) on the rat. The analgesic activity is expressed as a percent variation from the algogenic stimulus, after 3 and 5 hours with respect to the controls.

The next data set is described as follows: in vivo. To be noted: rat, po. On the procedure: The ulcer-causing activity has been determined by administering the substances per os to rats which have fasted 18 hours and evaluating the presence of gastric lesions 7 hours after the treatment. The UD50 has been determined according to Litchfield and Wilcoxon (J. Pharmacol. Exp. Ther. 96, 99, 1949).
Data set [3] is described as follows: Acute toxicity per os, single dose, LD50. To be noted: mouse, in vivo, po. On the procedure:
The acute toxicity has been determined by administering the substances per os in a sole dose to the mouse after 18 hours of fasting. The LD50 has been determined according to Litchfield and Wilcoxon (J. Pharmacol. Exp. Ther. 96, 99, 1949).

A word on the LD50: it is the dose expected to kill half of the subjects tested.

Consider `CC(C)Cc1ccc(C(C)C(=O)O)cc1` (stereo not drawn) [2-(4-isobutylphenyl)-propionic acid, reference compound], for which the “Anti-inflammatory Inhibition” value in data set [1] (12.5 mg/kg per os, 3 hrs) stood at 33.6%; in data set [1] (12.5 mg/kg per os, 5 hrs), 16.5%; in data set [1] (25 mg/kg per os, 3 hrs) it was 43.9%; in data set [1] (25 mg/kg per os, 5 hrs), 19.3%; in data set [1] (50 mg/kg per os, 3 hrs), 54.2%; in data set [1] (50 mg/kg per os, 5 hrs), 26.6%. Besides, the “Anti-inflammatory Inhibition” value is listed as 49.5% in data set [1] (100 mg/kg per os, 3 hrs) and 32.1% in data set [1] (100 mg/kg per os, 5 hrs). For the same molecule, the LD50 per os/mouse in the data set on mouse is given as 800 mg/kg. Besides, the “Analgesic activity Variation” value in data set [2] (12.5 mg/kg per os, 3 hrs) is reported as “+86.7%”; in data set [2] (12.5 mg/kg per os, 5 hrs), “+83.8%”; in data set [2] (50 mg/kg per os, 3 hrs) it was “+146.9%”; in data set [2] (50 mg/kg per os, 5 hrs), “+69.5%”. For the same molecule, the TD50 at 7 h in the data set “in vivo” is 38 mg/kg.

As to `Cc1ncc(COC(=O)C(C)c2ccc(CC(C)C)cc2)c(CO)c1O` (stereo not drawn) [2-(4-isobutyl-phenyl)-propionic pyridoxine 5-ester], the median lethal dose (LD50) in data set [3] was > 2000 mg/kg. Moreover, the “Anti-inflammatory Inhibition” value was determined as 27.1% in data set [1] (6.25 mg/kg per os, 3 hrs); 24.8% in data set [1] (6.25 mg/kg per os, 5 hrs); 41.1% in data set [1] (12.5 mg/kg per os, 3 hrs); 28.4% in data set [1] (12.5 mg/kg per os, 5 hrs); 48.6% in data set [1] (25 mg/kg per os, 3 hrs); 37.6% in data set [1] (25 mg/kg per os, 5 hrs). Also, the “Anti-inflammatory Inhibition” value in data set [1] (50 mg/kg per os, 3 hrs) is on record as 55.1%; in data set [1] (50 mg/kg per os, 5 hrs), 42%. For the same molecule, the “Analgesic activity Variation” value is given as “+61.2%” in data set [2] (12.5 mg/kg per os, 3 hrs); “+71.4%” in data set [2] (12.5 mg/kg per os, 5 hrs); “+129.6%” in data set [2] (50 mg/kg per os, 3 hrs); “+134.3%” in data set [2] (50 mg/kg per os, 5 hrs). For the same molecule, the TD50 at 7 h in “in vivo” was found to be 365 mg/kg.

`Cc1ncc(COC(=O)C(C)c2ccc(CC(C)C)cc2)c2c1OC(C)(C)OC2` (stereo not drawn) [2-(4-isobutylphenyl)-propionic isopropylidenepyridoxine 5-ester]: in data set [3], the LD50 was > 2200 mg/kg. For the same molecule, the “Anti-inflammatory Inhibition” value in data set [1] (12.5 mg/kg per os, 3 hrs) is recorded as 19.6%; in data set [1] (12.5 mg/kg per os, 5 hrs) it was 18.3%; in data set [1] (25 mg/kg per os, 3 hrs), 13.1%; in data set [1] (25 mg/kg per os, 5 hrs), 12.8%; in data set [1] (50 mg/kg per os, 3 hrs), 43.9%; in data set [1] (50 mg/kg per os, 5 hrs) it was 39.4%. Moreover, the “Anti-inflammatory Inhibition” value in data set [1] (100 mg/kg per os, 3 hrs) came out at 60.7%; in data set [1] (100 mg/kg per os, 5 hrs), 42.2%. The “Analgesic activity Variation” value in data set [2] (12.5 mg/kg per os, 3 hrs) is listed as “+77.5%”; in data set [2] (12.5 mg/kg per os, 5 hrs), “+39.0%”; in data set [2] (50 mg/kg per os, 3 hrs), “+122.5%”; in data set [2] (50 mg/kg per os, 5 hrs), “+78.1%”. In the data set “in vivo”, the TD50 at 7 h is > 400 mg/kg.
